Data from ChEMBL document CHEMBL5500400, “Design and Discovery of a Potent and Selective Inhibitor of Integrin αvβ1” (J Med Chem, 2024).

Legend:
Integrin alpha-V/beta-1 = Integrin alpha-V/beta-1 (Homo sapiens, UniProt P05556+P06756); assay: Inhibition of recombinant human Integrin alphaVbeta1 using TMB as substrate incubated for 2 hrs in presence of fibronectin by ELISA; assay type: protein-complex assay
[1] = Apparent permeability across apical to basolateral side in dog MDCK-MDR1 cells incubated for 60 mins by HPLC analysis; assay type: ADME, cell-based, Canis lupus familiaris
[2] = Apparent permeability across basolateral to apical side in dog MDCK-MDR1 cells incubated for 60 mins by HPLC analysis; assay type: ADME, cell-based, Canis lupus familiaris
Integrin alpha-V/beta-3 = Integrin alpha-V/beta-3 (Homo sapiens, UniProt P05106+P06756); assay: Inhibition of recombinant human Integrin alphaVbeta3 using TMB as substrate incubated for 2 hrs in presence of vitronectin by ELISA; assay type: protein-complex assay
Integrin alpha-V/beta-6 = Integrin alpha-V/beta-6 (Homo sapiens, UniProt P06756+P18564); assay: Inhibition of recombinant human Integrin alphaVbeta6 using TMB as substrate incubated for 2 hrs in presence of LAP by ELISA; assay type: protein-complex assay
Integrin alpha-V/beta-8 = Integrin alpha-V/beta-8 (Homo sapiens, UniProt P06756+P26012); assay: Inhibition of recombinant human Integrin alphaVbeta8 using TMB as substrate incubated for 2 hrs in presence of LAP by ELISA; assay type: protein-complex assay
Integrin alpha-4/beta-1 = Integrin alpha-4/beta-1 (Homo sapiens, UniProt P05556+P13612); assay: Inhibition of recombinant human Integrin alpha4beta1 using TMB as substrate incubated for 2 hrs in presence of VCAM-1 by ELISA; assay type: protein-complex assay
Integrin alpha-V/beta-5 = Integrin alpha-V/beta-5 (Homo sapiens, UniProt P06756+P18084); assay: Inhibition of recombinant human Integrin alphaVbeta5 using TMB as substrate incubated for 2 hrs in presence of fibronectin by ELISA; assay type: protein-complex assay
Integrin alpha-5/beta-1 = Integrin alpha-5/beta-1 (Homo sapiens, UniProt P05556+P08648); assay: Inhibition of recombinant human Integrin alpha5beta1 using TMB as substrate incubated for 2 hrs in presence of fibronectin by ELISA; assay type: protein-complex assay

Integrin alpha-V/beta-3, sequence (P05106 27-788 limits assumed): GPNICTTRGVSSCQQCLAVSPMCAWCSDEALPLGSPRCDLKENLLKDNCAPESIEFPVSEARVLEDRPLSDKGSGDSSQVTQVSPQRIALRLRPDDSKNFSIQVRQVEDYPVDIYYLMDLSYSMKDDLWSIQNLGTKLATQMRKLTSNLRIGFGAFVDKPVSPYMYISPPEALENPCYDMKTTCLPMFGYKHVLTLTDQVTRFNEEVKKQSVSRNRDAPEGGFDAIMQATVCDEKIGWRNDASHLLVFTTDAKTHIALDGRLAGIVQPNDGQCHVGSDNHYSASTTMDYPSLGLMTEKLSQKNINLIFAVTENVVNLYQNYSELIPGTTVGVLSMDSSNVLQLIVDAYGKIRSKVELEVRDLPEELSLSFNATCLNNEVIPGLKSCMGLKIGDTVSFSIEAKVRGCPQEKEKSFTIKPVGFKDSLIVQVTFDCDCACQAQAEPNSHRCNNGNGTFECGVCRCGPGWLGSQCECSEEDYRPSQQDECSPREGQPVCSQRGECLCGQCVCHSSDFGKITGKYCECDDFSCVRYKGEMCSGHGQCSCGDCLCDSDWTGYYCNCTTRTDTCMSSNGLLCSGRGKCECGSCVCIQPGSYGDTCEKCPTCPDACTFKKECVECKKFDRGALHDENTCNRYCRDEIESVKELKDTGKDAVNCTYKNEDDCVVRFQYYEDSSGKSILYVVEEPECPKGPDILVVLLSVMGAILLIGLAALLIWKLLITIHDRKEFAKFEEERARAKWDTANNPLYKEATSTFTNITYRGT
Integrin alpha-V/beta-3, sequence (P06756 31-889 limits assumed): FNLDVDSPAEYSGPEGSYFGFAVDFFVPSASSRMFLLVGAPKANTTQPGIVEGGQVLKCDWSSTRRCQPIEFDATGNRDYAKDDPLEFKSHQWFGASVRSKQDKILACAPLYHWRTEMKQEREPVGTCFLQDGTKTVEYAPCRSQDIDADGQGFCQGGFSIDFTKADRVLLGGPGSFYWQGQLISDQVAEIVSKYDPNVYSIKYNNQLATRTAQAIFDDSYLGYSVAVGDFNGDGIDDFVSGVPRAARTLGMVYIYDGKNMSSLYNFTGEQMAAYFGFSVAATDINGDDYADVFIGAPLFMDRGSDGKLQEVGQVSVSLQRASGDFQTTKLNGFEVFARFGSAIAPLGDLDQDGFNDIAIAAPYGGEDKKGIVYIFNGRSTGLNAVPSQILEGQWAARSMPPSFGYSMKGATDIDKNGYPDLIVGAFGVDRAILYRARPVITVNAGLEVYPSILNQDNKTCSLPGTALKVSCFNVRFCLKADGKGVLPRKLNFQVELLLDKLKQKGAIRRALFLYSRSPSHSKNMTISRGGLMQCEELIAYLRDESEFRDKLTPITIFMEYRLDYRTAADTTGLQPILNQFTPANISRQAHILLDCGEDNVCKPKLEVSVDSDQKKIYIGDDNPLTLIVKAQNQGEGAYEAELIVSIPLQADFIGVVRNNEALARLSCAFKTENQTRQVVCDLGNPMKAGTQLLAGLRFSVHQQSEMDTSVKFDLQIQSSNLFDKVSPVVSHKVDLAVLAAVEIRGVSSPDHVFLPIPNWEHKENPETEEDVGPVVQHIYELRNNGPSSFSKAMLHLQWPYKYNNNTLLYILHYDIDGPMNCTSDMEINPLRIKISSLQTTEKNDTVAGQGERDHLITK
Integrin alpha-V/beta-3, sequence (P06756 891-1048 limits assumed): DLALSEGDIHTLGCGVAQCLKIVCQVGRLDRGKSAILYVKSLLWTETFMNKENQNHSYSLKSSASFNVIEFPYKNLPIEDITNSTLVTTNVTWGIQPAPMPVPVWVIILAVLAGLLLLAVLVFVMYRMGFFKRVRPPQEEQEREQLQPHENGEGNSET
Integrin alpha-V/beta-8, sequence (P06756 31-889 limits assumed): as the sequence (P06756 31-889 limits assumed) above
Integrin alpha-V/beta-8, sequence (P06756 891-1048 limits assumed): as the sequence (P06756 891-1048 limits assumed) above
Integrin alpha-V/beta-8, sequence (P26012 43-769 limits assumed): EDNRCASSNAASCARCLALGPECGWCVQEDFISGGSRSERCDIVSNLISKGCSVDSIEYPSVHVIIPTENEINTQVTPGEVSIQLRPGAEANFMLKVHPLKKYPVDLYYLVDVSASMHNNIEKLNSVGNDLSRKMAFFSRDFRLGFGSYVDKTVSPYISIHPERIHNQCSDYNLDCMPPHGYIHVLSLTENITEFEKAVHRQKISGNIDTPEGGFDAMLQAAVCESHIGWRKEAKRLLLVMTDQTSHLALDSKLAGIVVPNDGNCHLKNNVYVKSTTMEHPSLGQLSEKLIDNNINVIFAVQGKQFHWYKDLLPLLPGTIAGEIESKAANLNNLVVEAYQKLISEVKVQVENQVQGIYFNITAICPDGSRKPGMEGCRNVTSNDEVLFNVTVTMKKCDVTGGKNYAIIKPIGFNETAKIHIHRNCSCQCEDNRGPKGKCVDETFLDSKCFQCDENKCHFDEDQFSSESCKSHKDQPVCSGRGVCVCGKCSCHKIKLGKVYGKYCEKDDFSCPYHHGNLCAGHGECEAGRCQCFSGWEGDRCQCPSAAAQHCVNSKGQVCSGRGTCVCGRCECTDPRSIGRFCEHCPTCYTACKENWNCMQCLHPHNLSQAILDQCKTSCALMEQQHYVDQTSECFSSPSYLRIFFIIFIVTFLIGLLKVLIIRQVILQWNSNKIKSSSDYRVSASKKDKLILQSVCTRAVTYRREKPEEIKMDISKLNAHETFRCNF
Integrin alpha-V/beta-6, sequence (P06756 31-889 limits assumed): as the sequence (P06756 31-889 limits assumed) above
Integrin alpha-V/beta-6, sequence (P06756 891-1048 limits assumed): as the sequence (P06756 891-1048 limits assumed) above
Integrin alpha-V/beta-6, sequence (P18564 22-788 limits assumed): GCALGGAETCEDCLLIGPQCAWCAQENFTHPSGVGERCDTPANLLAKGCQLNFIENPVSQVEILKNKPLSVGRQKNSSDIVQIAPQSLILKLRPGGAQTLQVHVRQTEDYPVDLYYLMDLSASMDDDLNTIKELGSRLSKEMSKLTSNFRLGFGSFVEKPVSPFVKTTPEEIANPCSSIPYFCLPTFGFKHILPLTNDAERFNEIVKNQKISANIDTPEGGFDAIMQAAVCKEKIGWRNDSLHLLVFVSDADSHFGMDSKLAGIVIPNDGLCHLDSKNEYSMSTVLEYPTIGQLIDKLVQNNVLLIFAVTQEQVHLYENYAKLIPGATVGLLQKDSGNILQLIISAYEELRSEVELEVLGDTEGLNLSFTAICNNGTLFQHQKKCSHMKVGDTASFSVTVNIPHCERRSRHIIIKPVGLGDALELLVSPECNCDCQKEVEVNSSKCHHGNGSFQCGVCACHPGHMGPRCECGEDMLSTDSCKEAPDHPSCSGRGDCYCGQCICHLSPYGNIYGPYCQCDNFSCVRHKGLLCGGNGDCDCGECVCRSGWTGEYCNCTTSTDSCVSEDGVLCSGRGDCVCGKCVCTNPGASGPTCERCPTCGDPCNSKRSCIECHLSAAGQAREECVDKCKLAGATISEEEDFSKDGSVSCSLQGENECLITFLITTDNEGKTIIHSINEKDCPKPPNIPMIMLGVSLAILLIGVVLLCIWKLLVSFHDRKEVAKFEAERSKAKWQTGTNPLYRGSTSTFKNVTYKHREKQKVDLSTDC
Integrin alpha-V/beta-5, sequence (P06756 31-889 limits assumed): as the sequence (P06756 31-889 limits assumed) above
Integrin alpha-V/beta-5, sequence (P06756 891-1048 limits assumed): as the sequence (P06756 891-1048 limits assumed) above
Integrin alpha-V/beta-5, sequence (P18084 24-799 limits assumed): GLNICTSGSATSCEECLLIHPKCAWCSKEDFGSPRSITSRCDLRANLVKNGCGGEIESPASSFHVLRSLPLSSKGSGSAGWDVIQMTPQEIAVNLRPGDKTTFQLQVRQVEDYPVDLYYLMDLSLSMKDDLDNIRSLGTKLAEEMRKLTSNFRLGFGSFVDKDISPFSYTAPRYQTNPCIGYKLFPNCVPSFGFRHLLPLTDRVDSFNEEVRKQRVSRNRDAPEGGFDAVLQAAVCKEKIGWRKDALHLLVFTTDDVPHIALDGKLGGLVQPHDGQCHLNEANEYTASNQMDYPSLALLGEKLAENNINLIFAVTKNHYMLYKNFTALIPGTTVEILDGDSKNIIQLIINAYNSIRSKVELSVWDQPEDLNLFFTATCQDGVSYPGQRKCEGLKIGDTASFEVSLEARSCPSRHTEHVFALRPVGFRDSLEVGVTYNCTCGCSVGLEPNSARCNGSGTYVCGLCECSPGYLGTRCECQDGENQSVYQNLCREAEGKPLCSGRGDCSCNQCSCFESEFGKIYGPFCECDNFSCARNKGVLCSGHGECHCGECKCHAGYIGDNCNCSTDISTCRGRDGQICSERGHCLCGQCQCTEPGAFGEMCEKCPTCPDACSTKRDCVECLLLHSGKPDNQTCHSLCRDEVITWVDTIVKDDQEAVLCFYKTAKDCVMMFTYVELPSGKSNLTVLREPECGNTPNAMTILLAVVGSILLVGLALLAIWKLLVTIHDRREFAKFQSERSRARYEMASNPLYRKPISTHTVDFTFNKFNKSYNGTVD

SMILES | IC50 (Integrin alpha-V/beta-1) [nM] | Papp A→B at 1 h [1] [×10⁻⁶ cm/s] | Papp B→A at 1 h [2] [×10⁻⁶ cm/s] | IC50 (Integrin alpha-V/beta-3) [nM] | IC50 (Integrin alpha-V/beta-6) [nM] | IC50 (Integrin alpha-V/beta-8) [nM] | IC50 (Integrin alpha-4/beta-1) [nM] | IC50 (Integrin alpha-V/beta-5) [nM] | IC50 (Integrin alpha-5/beta-1) [nM]
O=C(CN1C(=O)Cc2ccccc21)NC[C@H](NC(=O)c1ccccc1Cl)C(=O)O | > 10000 |  |  |  |  |  |  |  | 
COc1ccc(Cl)c(C(=O)N[C@@H](CNC(=O)Cn2c(=O)[nH]c3ccncc32)C(=O)O)c1F | 0.631 | 1.2 | 1.2 |  |  |  |  |  | 
O=C(CCCCc1ccc2c(n1)NCCC2)NCC(NC(=O)c1c(Cl)cccc1Cl)C(=O)O (racemic) | 0.2 |  |  | 1 | < 0.158 | < 0.158 | 3160 |  | 
Cc1ccc(Cl)c(C(=O)N[C@@H](CNC(=O)Cn2c(=O)[nH]c3cc(F)c(F)cc32)C(=O)O)c1F | 1 | 1.2 | 0.2 |  |  |  |  |  | 
Cc1cc2[nH]c(=O)n(CC(=O)NC[C@H](NC(=O)c3c(Cl)ccc(C)c3F)C(=O)O)c2cc1C | 1.58 | 0.8 | 0.6 |  |  |  |  |  | 
O=C(Cn1c(=O)[nH]c2ncccc21)NC[C@H](NC(=O)c1ccccc1Cl)C(=O)O | 12.6 |  |  | > 10000 | 501 | > 10000 | 3160 | > 10000 | 631
O=C(Cn1c(=O)[nH]c2ccccc21)NC[C@H](NC(=O)c1c(Cl)cccc1Cl)C(=O)O | 20 |  |  | > 10000 | > 10000 | > 10000 | 2000 | > 10000 | 1260
COc1ccc(Cl)c(C(=O)N[C@@H](CNC(=O)Cn2c(=O)[nH]c3ncccc32)C(=O)O)c1F | 0.631 |  |  | > 10000 | 3160 | 1580 | 1580 | > 10000 | 251
COc1cc(F)c(C(=O)N[C@@H](CNC(=O)Cn2c(=O)[nH]c3ncccc32)C(=O)O)c(Cl)c1 | 1.26 |  |  | > 10000 | 6310 | 3980 | 5010 | > 10000 | 158
O=C(Cn1c(=O)[nH]c2ncccc21)NC[C@H](NC(=O)c1c(F)cc(-c2ccccc2)cc1Cl)C(=O)O | 31.6 |  |  | > 10000 | > 10000 | 6310 | > 10000 | > 10000 | 631
Cc1ccc(Cl)c(C(=O)N[C@@H](CNC(=O)Cn2c(=O)[nH]c3ncncc32)C(=O)O)c1F | 0.631 | 0.9 | 0.7 |  |  |  |  |  | 
O=C(Cn1cnc2ccccc21)NC[C@H](NC(=O)c1ccccc1Cl)C(=O)O | > 10000 |  |  |  |  |  |  |  | 
